These results are taken from patent publication US8436000B2, “Substituted carbamate derivatives as modulators of corticotropin-releasing factor receptor activity” (Bristol-Myers Squibb Company, priority 2008, dated 2013).

In one series the target is T1, CRF1 (Rattus norvegicus, UniProt P35353).
T1 construct: Frozen rat frontal cortex was thawed rapidly in assay buffer; tissue Analytical Biological Services, Inc. (Wilmington, Del.); host or cells: rat frontal cortex
T1 sequence (P35353 24-415): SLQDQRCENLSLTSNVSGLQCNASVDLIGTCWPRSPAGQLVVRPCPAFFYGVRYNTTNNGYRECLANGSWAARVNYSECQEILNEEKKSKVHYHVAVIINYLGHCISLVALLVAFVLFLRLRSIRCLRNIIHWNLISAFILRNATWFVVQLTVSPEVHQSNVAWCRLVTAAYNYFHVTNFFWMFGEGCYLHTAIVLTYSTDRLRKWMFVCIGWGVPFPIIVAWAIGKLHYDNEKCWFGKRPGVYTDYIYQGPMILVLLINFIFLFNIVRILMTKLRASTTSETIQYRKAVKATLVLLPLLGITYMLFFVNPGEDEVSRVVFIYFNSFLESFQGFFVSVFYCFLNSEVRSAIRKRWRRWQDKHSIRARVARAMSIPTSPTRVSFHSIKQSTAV
As to the kind of experiment: CRF1 Binding Assay (125I-ovine-CRF displacement, rat frontal cortex homogenate). To be noted: 125I-o-CRF, class symbols. Here is the method: Frozen rat frontal cortex was thawed rapidly in assay buffer containing 50 mM Hepes (pH 7.0 at 23° C.), 10 mM MgCl2, 2 mM EGTA, 1 μg/ml aprotinin, 1 μg/ml leupeptin, 1 Mg/ml pepstatin A, 0.005% Triton X-100, 10 U/ml bacitracin and 0.1% ovalbumin and homogenized. The suspension was centrifuged at 32000×g for 30 minutes. The resulting supernatant was discarded and the pellet resuspended by homogenization in assay buffer and centrifuged again. The supernatant was discarded and the pellet resuspended by homogenization in assay buffer and frozen at −70° C. On the day of the experiment aliquots of the homogenate were thawed quickly and 25 μg/well added to […] ^125I-ovine-CRF (^125I-o-CRF) and drugs in a total volume of 100 μl assay buffer. The assay mixture was incubated for 2 hr at 21° C. Bound and free radioligand were then separated by rapid filtration using glass fiber filters (Whatman GF/B, pretreated with 0.3% PEI (polyethylenimine)) on a Brandel Cell Harvester. Filters were then washed multiple times with ice cold wash buffer (PBS w/o Ca^2+ and Mg^2+, 0.01% Triton X-100; pH 7.0 at 23° C.). Non-specific binding was defined using 1 μM DMP696, a CRF1 selective antagonist [Li, Y-W. et al., CNS Drug Reviews 11: 21-52, (2005)]. Filters were then counted in a Wallac Wizard gamma counter. IC50 values were determined in a five point (five drug concentrations) or ten point (ten drug concentrations) competition assay using non-linear regression by Microsoft Excel-fit. Rat frontal cortex was obtained from Analytical Biological Services, Inc. (Wilmington, Del.). ^125I-ovine-CRF (2200 Ci/mmol) was obtained from PerkinElmer Life Sciences, Inc. (Boston, Mass.).
As usually defined, the IC50 is the concentration needed to halve the response being measured. Read a high IC50 as weaker potency in that assay. On to `COc1nc(C)c(Nc2nc(Cl)cn([C@H](COC(=O)Nc3ccccc3)C3CC3)c2=O)cc1C` [Example 1, (S)-2-(5-Chloro-3-(6-methoxy-2,5-dimethylpyridin-3-ylamino)-2-oxopyrazin-1(2H)-yl)-2-cyclopropylethyl phenylcarbamate], for which the IC50 lay within 0.1 to 100 nM.

In the case of `COc1nc(C)c(Nc2nc(Cl)cn([C@H](COC(=O)Nc3cccc(C#N)c3)C3CC3)c2=O)cc1C` [Example 2, (S)-2-(5-Chloro-3-(6-methoxy-2,5-dimethylpyridin-3-ylamino)-2-oxopyrazin-1(2H)-yl)-2-cyclopropylethyl 3-cyanophenylcarbamate], the IC50 was in the range of 0.1 to 100 nM.

Consider `COc1nc(C)c(Nc2nc(Cl)cn([C@H](COC(=O)Nc3cccnc3)C3CC3)c2=O)cc1C` [Example 3, (S)-2-(5-Chloro-3-(6-methoxy-2,5-dimethylpyridin-3-ylamino)-2-oxopyrazin-1(2H)-yl)-2-cyclopropylethyl pyridin-3-ylcarbamate], for which the IC50 is 0.1 to 100 nM.

For `COc1nc(C)c(Nc2nc(Cl)cn([C@H](COC(=O)Nc3ccccc3Cl)C3CC3)c2=O)cc1C` [Example 4, (S)-2-(5-Chloro-3-(6-methoxy-2,5-dimethylpyridin-3-ylamino)-2-oxopyrazin-1(2H)-yl)-2-cyclopropylethyl 2-chlorophenylcarbamate], the half-maximal inhibitory concentration (IC50) lay in the range of 0.1 to 100 nM.

In turn, `COc1nc(C)c(Nc2nc(Cl)cn([C@H](COC(=O)Nc3ccc(Cl)cc3)C3CC3)c2=O)cc1C` [Example 5, (S)-2-(5-Chloro-3-(6-methoxy-2,5-dimethylpyridin-3-ylamino)-2-oxopyrazin-1(2H)-yl)-2-cyclopropylethyl 4-chlorophenylcarbamate] registered an IC50 of 0.1 to 100 nM.

As for `COc1nc(C)c(Nc2nc(Cl)cn([C@H](COC(=O)Nc3cc(Cl)cc(Cl)c3)C3CC3)c2=O)cc1C` [Example 6, (S)-2-(5-Chloro-3-(6-methoxy-2,5-dimethylpyridin-3-ylamino)-2-oxopyrazin-1(2H)-yl)-2-cyclopropylethyl 3,5-dichlorophenylcarbamate], the IC50 is 0.1 to 100 nM.

In the case of `COc1nc(C)c(Nc2nc(Cl)cn([C@H](COC(=O)Nc3ccc(Cl)cc3Cl)C3CC3)c2=O)cc1C` [Example 7, (S)-2-(5-Chloro-3-(6-methoxy-2,5-dimethylpyridin-3-ylamino)-2-oxopyrazin-1(2H)-yl)-2-cyclopropylethyl 2,4-dichlorophenylcarbamate], the IC50 is 0.1 to 100 nM.

`CCCNC(=O)OC[C@H](C1CC1)n1cc(Cl)nc(Nc2cc(C)c(OC)nc2C)c1=O` [Example 9, (S)-2-(5-Chloro-3-(6-methoxy-2,5-dimethylpyridin-3-ylamino)-2-oxopyrazin-1(2H)-yl)-2-cyclopropylethyl propylcarbamate] came in with an IC50 of 0.1 to 100 nM.

In turn, `CCNC(=O)OC[C@H](C1CC1)n1cc(Cl)nc(Nc2cc(C)c(OC)nc2C)c1=O` [Example 10, (S)-2-(5-Chloro-3-(6-methoxy-2,5-dimethylpyridin-3-ylamino)-2-oxopyrazin-1(2H)-yl)-2-cyclopropylethyl ethylcarbamate] had an IC50 of 0.1 to 100 nM.

As for `COc1nc(C)c(NC(=O)OC[C@H](C2CC2)n2cc(Cl)nc(Nc3cc(C)c(OC)nc3C)c2=O)cc1C` [Example 12, (S)-2-(5-Chloro-3-(6-methoxy-2,5-dimethylpyridin-3-ylamino)-2-oxopyrazin-1(2H)-yl)-2-cyclopropyl ethyl 6-methoxy-2,5-dimethylpyridin-3-ylcarbamate], the IC50 is 0.1 to 100 nM.

Regarding `COc1ccc(NC(=O)OC[C@H](C2CC2)n2cc(Cl)nc(Nc3cc(C)c(OC)nc3C)c2=O)c(C)n1` [Example 13, (S)-2-(5-Chloro-3-(6-methoxy-2,5-dimethylpyridin-3-ylamino)-2-oxopyrazin-1(2H)-yl)-2-cyclopropylethyl 6-methoxy-2-dimethylpyridin-3-ylcarbamate], the IC50 fell in the range of 0.1 to 100 nM.

`Cc1cc(Nc2nc(Cl)cn([C@H](COC(=O)Nc3cccnc3)C3CC3)c2=O)c(C)nc1OC(F)F` [Example 15, (S)-2-(5-Chloro-3-(6-(difluoromethoxy)-2,5-dimethylpyridin-3-ylamino)-2-oxopyrazin-1(2H)-yl)-2-cyclopropylethyl pyridin-3-ylcarbamate] registered an IC50 of 0.1 to 100 nM.

The same series, now with this note: 125I-o-CRF, numeric values.
With `CCCCNC(=O)OC[C@H](C1CC1)n1cc(Cl)nc(Nc2cc(C)c(OC)nc2C)c1=O` [Example 8, (S)-2-(5-Chloro-3-(6-methoxy-2,5-dimethylpyridin-3-ylamino)-2-oxopyrazin-1(2H)-yl)-2-cyclopropylethyl butylcarbamate], the IC50 was 4.74 nM.

In the case of `CCOc1nc(C)c(NC(=O)OC[C@H](C2CC2)n2cc(Cl)nc(Nc3cc(C)c(OC)nc3C)c2=O)cc1C` [Example 11, (S)-2-(5-Chloro-3-(6-methoxy-2,5-dimethylpyridin-3-ylamino)-2-oxopyrazin-1(2H)-yl)-2-cyclopropylethyl 6-ethoxy-2,5-dimethylpyridin-3-ylcarbamate], the IC50 stood at 15.9 nM.

Turning to `Cc1cc(Nc2nc(Cl)cn([C@H](COC(=O)Nc3ccccc3)C3CC3)c2=O)c(C)nc1OC(F)F` [Example 14, (S)-2-(5-Chloro-3-(6-(difluoromethoxy)-2,5-dimethylpyridin-3-ylamino)-2-oxopyrazin-1(2H)-yl)-2-cyclopropylethyl phenylcarbamate], the IC50 was found to be 0.74 nM.

A further series deals with Human Y-79 retinoblastoma cells. Kind of series: Functional Assay (Y-79 cells), CRF-stimulated cAMP production (HTRF). The conditions noted are these: stimulation of cAMP production in Y-79 cells, n=6. In kind it is cell-based. As for the experimental part:
Functional Assay (Y-79 cells).
Human Y-79 retinoblastoma cells were suspended in assay buffer (Hank's Balanced Salt Solution containing 2 mM CaCl2, 5 mM MgCl2, 20 mM HEPES, 1 mM IBMX) and plated at 20,000 cells/well in a 96-well black plate. CRF antagonists (typically 0.01 to 10,000 nM) were then added to wells as needed and allowed to equilibrate with the cells for 30 minutes at 37° C. […] The reaction was terminated by the addition of a lysis solution containing homogeneous time resolved florescence (HTRF) cAMP XL665 conjugate followed by HTRF anti-cAMP cryptate conjugate (CIS bio International). Plates were subsequently incubated at room temperature for 1 hour prior to reading the time-resolved fluorescence signal. The amount of cAMP produced was estimated from a standard curve prepared using known concentrations of cAMP. The percentage inhibition of CRF-induced cAMP production was determined for each compound (triplicate determinations). The effect of CRF antagonists on basal cAMP production (i.e. in the absence of CRF) was also determined.
A general note: Changes in cAMP serve as a functional read-out for many G protein-coupled receptors.
A word on the EC50: it is the midpoint of the concentration-response curve. Read a high EC50 as lower potency in that assay. For Corticotropin releasing factor [CRF], the midpoint of the response, the EC50, lay at 1.11 ± 0.14 nM.

Test system in a further series: not given
Assay: not given
Settings: not given
By melting point is commonly meant the temperature, or range, at which the solid turns liquid. `COc1nc(C)c(Nc2nc(Cl)cn([C@H](COC(=O)Nc3cccc(C#N)c3)C3CC3)c2=O)cc1C` [Example 2, (S)-2-(5-Chloro-3-(6-methoxy-2,5-dimethylpyridin-3-ylamino)-2-oxopyrazin-1(2H)-yl)-2-cyclopropylethyl 3-cyanophenylcarbamate] displayed a melting point of 206.5 to 207.2 °C.
